Assay results taken from patent US20250249056A1, “CANCER THERAPIES COMPRISING A NUCLEAR EXPORT INHIBITOR AND AN ONCOLYTIC VIRUS” (priority 2022, published 2025).

Key:
MYXV [1] = experiment: Viral replication assay: progeny virus titration on permissive rabbit RK13 cells; type: cell-based, myxoma virus; settings: PANC-1 and HT29 cells; LMB 0.001-0.1 μM
Description: Viral titers in different human cancer cell lines were determined using a viral replication assay. Cells were seeded in 24-well plates (2×10^5 cells/well). The next day, the cells were treated with different concentrations of leptomycin B (LMB) or selinexor diluted in DMEM for 1 hour. MYXV was added to the cells and incubated for one hour at 37° C. After 1 hour, the unbound viruses were washed away using DMEM, and DMEM with LMB or selinexor was added to the cells. Cells were harvested in DMEM without LMB or selinexor at the indicated time points. After harvesting the cells, they were stored at −80° C. until processing. Samples were subjected to three freeze/thaw cycles and one-minute sonification to lyse cells and release the viral particles. Afterwards, different dilutions were prepared in DMEM and plated on rabbit RK13 and foci were counted after 48 hours using a fluorescent microscope. All assays and dilutions were performed in triplicate.

DHX9 = experiment: Immunofluorescence staining of DHX9 localization / antiviral granules in MYXV-infected A549 cells; type: cell-based, human
Description: Immunofluorescence: Cells (5×10^5-1×10^6/dish) were seeded onto glass bottom 35 mm petri dishes overnight. Depending on the experiment, the next day, cells were transfected with siRNA for 48 hours or treated with a nuclear export inhibitor, MYXV, or a combination of both. At different time points after treatment, the cells were washed with PBS three times, fixed with 2% paraformaldehyde in PBS for 12 minutes at room temperature, washed with PBS three times, and permeabilized in 0.1% Triton™ X-100 in PBS for 90 seconds at room temperature. Fixed cells were washed with PBS three times and then blocked with 3% BSA in PBS for 30 minutes at 37° C., incubated with primary antibody (1:300 dilution) for 30 minutes at 37° C., washed with PBS six times, and incubated with secondary antibodies conjugated to different Alexa Fluor. After washing again with PBS six times, samples were mounted on glass slides with Vecta Shield (Vectorlabs) containing DAPI (4′,6′-diamidino-2-phenylindole) to stain DNA in the nuclei […]. Images were captured using a fluorescence microscope (Leica).

MYXV [2] = experiment: MYXV reporter gene expression (GFP/TdTomato) and foci by fluorescence microscopy in human cancer cell lines; settings: PANC-1 and HT29 cells; pretreatment with LMB 0.001-0.1 μM; vMyx-GFP-TdTomato

CCC(=C/[C@H](C)C/C=C/C(C)=C/[C@@H](C)C(=O)[C@@H](C)[C@H](O)[C@@H](C)C/C(C)=C/C(=O)O)/C=C/[C@@H]1OC(=O)C=C[C@@H]1C [LMB, leptomycin B]
viral production measured by titration assay (MYXV [1]): significantly enhanced viral production | formation of DHX9 antiviral granules in the cytoplasm (DHX9; A549 cells infected with vMyx-GFP, 24 h): blocked the formation of antiviral granules | cells in which DHX9 remained in the nucleus (DHX9; A549 cells, LMB 1 h then vMyx-GFP MOI=1, 24 h): > 80% | viral gene expression (early/late GFP and late TdTomato reporter protein expression) (MYXV [2]): enhanced viral gene expression
